Measurements: PubChem BioAssay (NCI)
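Results reflect a 48-hour exposure of cells in 96-well plates to compound at five concentrations. TGI is the concentration that stops growth completely.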

Legend:
Assay in all cases: NCI anticancer screen, dose series, 48 h
[1] = test system: 786-0 renal
[2] = test system: ACHN renal
[3] = test system: HCC-2998 colon
[4] = test system: HOP-62 NSCLC
[5] = test system: MDA-MB-435
[6] = test system: NCI-H226 lung
[7] = test system: NCI-H460 lung
[8] = test system: SNB-19 CNS
[9] = test system: TK-10 renal
[10] = test system: UACC-62 melanoma

SMILES: O=C1OI(C#Cc2ccccc2)c2ccccc21
- TGI [1]: 11.2 µM
- TGI [2]: 5.42 µM
- TGI [3]: 21.4 µM
- TGI [4]: 22.6 µM
- TGI [5]: 14.1 µM
- TGI [6]: 19 µM
- TGI [7]: 13.4 µM
- TGI [8]: 21.8 µM
- TGI [9]: 13.5 µM
- TGI [10]: 19.3 µM

SMILES: CC12CC(C/C1=N/O)C(C)(C)C2 (stereo not given)
- TGI [1]: > 100 µM
- TGI [2]: > 100 µM
- TGI [3]: > 100 µM
- TGI [4]: > 100 µM
- TGI [5]: > 100 µM
- TGI [6]: > 100 µM
- TGI [7]: > 100 µM
- TGI [8]: > 100 µM
- TGI [9]: > 100 µM
- TGI [10]: > 100 µM

SMILES: O=S1(=O)CCN(c2ccccc2CC(c2c[nH]c3ccccc23)c2c[nH]c3ccccc23)CC1
- TGI [1]: 27.8 µM
- TGI [2]: > 91.7 µM
- TGI [3]: 8.09 µM
- TGI [4]: 35.7 µM
- TGI [5]: > 31.7 µM
- TGI [6]: 42.7 µM
- TGI [7]: 13 µM
- TGI [8]: > 100 µM
- TGI [9]: 19.8 µM
- TGI [10]: 18.9 µM

SMILES: O=P(O)(O)CN1CCNCCN(CP(=O)(O)O)CCNCC1
- TGI [1]: > 100 µM
- TGI [2]: > 100 µM
- TGI [3]: > 100 µM
- TGI [4]: > 100 µM
- TGI [5]: > 100 µM
- TGI [6]: > 94.9 µM
- TGI [7]: 13.1 µM
- TGI [8]: > 100 µM
- TGI [9]: > 100 µM
- TGI [10]: > 100 µM

SMILES: CC1(C)CCC2(C(=O)OC3OC(CO)C(O)C(O)C3O)CCC3(CO)C(=CCC4C5(C)CC(O)C(O)C(C)(C(=O)OC6OC(CO)C(O)C(O)C6O)C5CCC43C)C2C1 (stereo not given)
- TGI [1]: > 100 µM
- TGI [2]: > 100 µM
- TGI [3]: > 100 µM
- TGI [4]: > 100 µM
- TGI [5]: > 100 µM
- TGI [6]: > 100 µM
- TGI [7]: > 100 µM
- TGI [8]: > 100 µM
- TGI [9]: > 100 µM
- TGI [10]: > 100 µM

SMILES: CC(C)(C)c1ccc(-c2nnc(-c3cc(C#N)cc(-c4nnc(-c5ccc(C(C)(C)C)cc5)o4)c3)o2)cc1
- TGI [1]: > 100 µM
- TGI [2]: > 100 µM
- TGI [3]: > 100 µM
- TGI [4]: > 100 µM
- TGI [5]: > 100 µM
- TGI [6]: > 100 µM
- TGI [7]: > 100 µM
- TGI [8]: > 100 µM
- TGI [9]: > 100 µM
- TGI [10]: > 100 µM

SMILES: COC(=O)c1ccc(/C=C2\CCc3ccccc3C2=O)cc1
- TGI [1]: > 100 µM
- TGI [2]: > 100 µM
- TGI [3]: > 100 µM
- TGI [4]: > 100 µM
- TGI [5]: > 100 µM
- TGI [6]: > 100 µM
- TGI [7]: > 100 µM
- TGI [8]: > 100 µM
- TGI [9]: > 100 µM
- TGI [10]: > 100 µM

SMILES: O=C(/C=C/c1ccco1)c1cccc(C(=O)/C=C/c2ccco2)n1
- TGI [1]: 20.5 µM
- TGI [2]: 72.7 µM
- TGI [3]: > 100 µM
- TGI [4]: > 88.6 µM
- TGI [5]: > 100 µM
- TGI [6]: > 100 µM
- TGI [7]: > 100 µM
- TGI [8]: > 48.8 µM
- TGI [9]: > 100 µM
- TGI [10]: > 100 µM
